What was measured:
[1] = tested on: Streptococcus pneumoniae; assay: Streptococcus pneumoniae growth assay; assay type: cell-based; conditions: 10 micrograms per ml; 5×10^5 CFU/mL
[2] = tested on: Primary Human endothelial cells (HUVEC); assay: Endothelial cell migration assay; assay type: cell-based; conditions: 10 micrograms per ml, 22 hours
Method: Thereafter, designated concentration of testing peptides—10 micrograms per ml—was added in duplicate wells.

[3] = tested on: Ovalbumin-restimulated spleen cells of Balb/c mice; assay: Th1/Th2 cytokine profiling assay; assay type: cell-based, mouse; conditions: 10 micrograms per ml; murine spleen cells; Ovalbumin restimulation, 72 hours
[4] = tested on: HUVEC; assay: Endothelial tube formation assay; assay type: cell-based, human; conditions: 10 micrograms per ml, 20 hours
Source text: Positive control was vehicle only.

[5] = tested on: hepatitis B virus (HBV) ayw strain; assay: HBV experimental assay in HepG2-2.2.15 cells (TaqMan PCR of secreted HBV DNA); assay type: cell-based; conditions: 10 micrograms per ml, six days
[6] = tested on: A549 cells; assay: Apoptosis prevention assay (C2 ceramide, Annexin-5); assay type: cell-based, human; conditions: 10 micrograms per ml, 30 min pretreatment
[7] = tested on: HCMV strain AD169; assay: HCMV plaque formation assay in MRC-5 cells; assay type: cell-based; conditions: 10 micrograms per ml, 7-10 days

| Substance | inhibition of the growth of Streptococcus pneumoniae [1] | inhibition of the migration of human endothelial cells [2] | change of the production of IL-5 [3] | production of IFN-γ, suppressed by [3] | production of IL-2, induced by [3] | production of IL-4, induced/increased by [3] | production of TNF-alpha, induced by [3] | inhibition of the tube formation of human endothelial cells [4] | inhibition of HBV replication as compared to the virus control infection [5] | reduction of the ceramide-induced apoptosis on human lung cells [6] | inhibition of HCMV plaque formation as compared to the virus control [7] | production of IFN-γ, induced by [3] |
| --- | --- | --- | --- | --- | --- | --- | --- | --- | --- | --- | --- | --- |
| Pyr-His-Trp-Ser-Tyr-D-His(Bzl)-D-Leu-Arg-Pro-NHEt [Peptide 2] | 100% | 8% | did not significantly change | 30.8% | 55.8% | 135.7% | did not significantly change | 4% | 61.6% | did not reduce | did not inhibit | – |
| Pyr-His-Trp-Ser-Tyr-Trp-Leu-Arg-Pro-Gly-NH2 (HWSYWLRPG; N-terminal pyroglutamate; C-terminal amide; printed: His-Trp-Ser-Tyr-Trp-Leu-Arg-Pro-Gly-) [Peptide 1, LHRH family peptide, commercially available] | 100% | 3% | did not significantly change | – | 47.1% | 70.6% | 45.1% | 15% | 23% | 22.65% | did not inhibit | 40.2% |

— patent US20100204138A1, “USE OF TRP6-T[…] D-LEU6-[…] […] AGENTS” (priority 2007, published 2010)
